Measurements published in patent publication US20260265250A1, “3-[…] ACTIVATORS OF SEROTONIN RECEPTORS” (Atai Therapeutics, Inc., priority 2023, published 2026).
Structures can show the parent of a compound that is named as a salt.

Legend:
5-HT2A [1] = target: T1, 5-HT2A (Homo sapiens, UniProt P28223); assay: Calcium Mobilization Assay (Calcium No-WashPLUS, Gq, FLIPR); format: cell-based; conditions: read-out: 5-HT2A % activation @30 uM Ca++ Flux
Procedure: (§1) Compounds 1-18 were assessed for biological activity across a panel of 5-HT receptors including 5-HT2A, 5-HT2B, and 5-HT2C. Biased signaling was assessed by monitoring both intracellular Gq-mediated calcium release, as well as β-arrestin activation and recruitment to the GPCR. Table 2 is a summary of findings across these compounds and the 5-HT receptors tested. • (i) Arrestin Pathway Assay. The PathHunter® β-Arrestin assay monitors the activation of a GPCR in a homogenous, non-imaging assay format using a technology developed by DiscoverX called Enzyme Fragment Complementation (EFC) with β-galactosidase (β-Gal) as the functional reporter. […] EA is fused to β-Arrestin and PK is fused to the GPCR of interest. When the GPCR is activated and β-Arrestin is recruited to the receptor, ED and EA complementation occurs, restoring β-Gal activity which is measured using chemiluminescent PathHunter® Detection Reagents. PathHunter cell lines (DiscoveRx Eurofins) were expanded from freezer stocks according to standard procedures. Cells were seeded in a total volume of 20 μL into white walled, 384-well microplates and incubated at 37° C. for the appropriate time prior to testing. For agonist determination, cells were incubated with sample to induce response. Intermediate dilution of sample stocks was performed to generate 5× sample in assay buffer. 5 μL of 5× sample was added to cells and incubated at 37° C. or room temperature for 90 to 180 minutes. Vehicle concentration was 1%. β-Arrestin assay signal was generated through a single addition of 12.5 or 15 μL (50% v/v) of PathHunter Detection reagent cocktail, followed by a one-hour incubation at room temperature. Microplates were read following signal generation with a PerkinElmer Envision™ instrument for chemiluminescent signal detection. Compound activity was analyzed using CBIS data analysis suite (ChemInnovation, CA). For agonist mode assays, percentage activity was calculated using the following formula: % Activity=100%×(mean RLU of test sample-mean RLU of vehicle control)/(mean MAX control ligand−mean RLU of vehicle control). In these studies, the MAX control ligand response was generated using 10 mM serotonin. • (ii) Calcium Mobilization Assay. The Calcium No-WashPLUS assay monitors the activation of a GPCR via Gq secondary messenger signaling in a live cell, non-imaging assay format. Calcium mobilization in PathHunter® cell lines or other cell lines stably expressing Gq-coupled GPCRs is monitored using a calcium-sensitive dye that is loaded into cells. GPCR activation by a compound result in the release of calcium from intracellular stores and an increase in dye fluorescence that is measured in real-time. Cell lines expressing the GPCR of interest were expanded from freezer stocks according to standard procedures. Cells were seeded in a total volume of 20 μL into black-walled, clear-bottom, Poly-D-lysine coated 384-well microplates and incubated at 37° C. for the appropriate time prior to testing. Assays were performed in 1× Dye Loading Buffer consisting of 1× Dye, 1× Additive A and 2.5 mM Probenecid in HBSS/20 mM Hepes. Probenicid was prepared fresh. Cells were loaded with dye prior to testing. Media was aspirated from cells and replaced with 20 μL Dye Loading Buffer. Cells were incubated for 30-60 minutes at 37° C. For agonist determination, cells were incubated with sample to induce response. After dye loading, cells were removed from the incubator and 10 μL HBSS/20 mM Hepes was added. 3× vehicle was included in the buffer when performing agonist dose curves to define the EC80 for subsequent antagonist assays. Cells were incubated for 30 minutes at room temperature in the dark to equilibrate plate temperature. Intermediate dilution of sample stocks was performed to generate 4× sample in assay buffer. Compound agonist activity was measured on a FLIPR Tetra (MDS). Calcium mobilization was monitored for 2 minutes and 10 μL 4× sample in HBSS/20 mM Hepes was added to the cells 5 seconds into the assay. […]
Target sequence in this assay (P28223 whole entry, the tested form may be a part): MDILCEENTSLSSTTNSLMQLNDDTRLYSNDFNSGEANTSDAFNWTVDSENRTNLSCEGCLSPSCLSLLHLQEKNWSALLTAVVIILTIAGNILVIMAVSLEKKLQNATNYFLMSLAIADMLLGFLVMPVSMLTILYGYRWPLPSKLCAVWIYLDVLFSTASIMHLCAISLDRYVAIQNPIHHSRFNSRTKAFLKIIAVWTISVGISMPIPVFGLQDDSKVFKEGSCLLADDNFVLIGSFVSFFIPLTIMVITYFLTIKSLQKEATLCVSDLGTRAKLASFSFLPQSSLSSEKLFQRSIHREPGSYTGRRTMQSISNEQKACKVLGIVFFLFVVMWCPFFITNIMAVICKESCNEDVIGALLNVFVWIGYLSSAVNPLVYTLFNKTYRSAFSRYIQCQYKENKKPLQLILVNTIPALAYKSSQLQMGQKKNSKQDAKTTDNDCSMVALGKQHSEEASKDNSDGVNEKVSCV

5-HT2A [2] = target: T1, 5-HT2A; assay: PathHunter β-Arrestin assay; format: cell-based
Procedure: as §1
Target sequence in this assay (P28223 whole entry, the tested form may be a part): as above
Target sequence in this assay (P32121 whole entry, further chain, the tested form may be a part): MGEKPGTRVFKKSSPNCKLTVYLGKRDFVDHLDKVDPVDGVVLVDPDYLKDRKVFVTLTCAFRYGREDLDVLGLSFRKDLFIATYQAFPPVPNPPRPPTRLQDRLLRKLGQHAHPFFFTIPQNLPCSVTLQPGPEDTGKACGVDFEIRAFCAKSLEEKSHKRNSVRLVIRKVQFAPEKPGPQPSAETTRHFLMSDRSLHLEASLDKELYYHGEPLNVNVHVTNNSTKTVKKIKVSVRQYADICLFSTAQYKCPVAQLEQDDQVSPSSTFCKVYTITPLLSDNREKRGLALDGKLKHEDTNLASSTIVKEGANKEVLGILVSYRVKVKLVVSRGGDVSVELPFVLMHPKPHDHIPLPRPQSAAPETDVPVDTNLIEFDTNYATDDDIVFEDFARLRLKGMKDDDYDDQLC

5-HT2C = target: T2, 5-HT2C (Homo sapiens, UniProt P28335); assay: 5-HT receptor panel, 5-HT2C agonist EC50 (readout not stated); format: cell-based
T2 sequence (P28335 33-458): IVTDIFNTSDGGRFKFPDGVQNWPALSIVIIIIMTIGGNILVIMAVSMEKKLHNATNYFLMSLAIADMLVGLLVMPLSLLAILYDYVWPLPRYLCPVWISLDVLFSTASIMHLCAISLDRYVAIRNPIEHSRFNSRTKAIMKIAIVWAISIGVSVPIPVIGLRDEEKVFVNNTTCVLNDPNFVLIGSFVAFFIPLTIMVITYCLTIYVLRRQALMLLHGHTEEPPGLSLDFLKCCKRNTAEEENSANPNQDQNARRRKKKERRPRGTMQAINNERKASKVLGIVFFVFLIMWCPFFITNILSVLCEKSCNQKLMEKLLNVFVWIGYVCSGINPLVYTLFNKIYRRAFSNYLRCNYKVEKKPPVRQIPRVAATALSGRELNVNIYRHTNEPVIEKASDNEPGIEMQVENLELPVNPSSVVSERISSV
Procedure: as §1

5-HT2A [3] = target: T1, 5-HT2A; conditions: compared to reference LSD; cited from earlier work
Target sequence in this assay (P28223 whole entry, the tested form may be a part): as the sequence (P28223 whole entry, the tested form may be a part) above

5-HT2A receptor [4] = conditions: cited from earlier work
5-HT2A receptor [5] = conditions: cited from earlier work; remark: listed apart in the source

SMILES: Cc1cc(Cl)cc(CNCCc2c[nH]c3ccccc23)c1 [Compound 1, N-(3-chloro-5-methylbenzyl)-2-(1H-indol-3-yl) ethan-1-amine]
- activation at 30 µM (5-HT2A [1]): 77.8%
- EC50 (5-HT2A [2]): 4.5 nM
- EC50 (5-HT2C): 28 nM

SMILES: COc1ccc(OC)c(CCNCc2ccccc2F)c1 [Compound 25H-NBF]
- preference for recruitment of β-arrestin 2 over miniGaq (5-HT2A [3]): statistically significant preference towards the recruitment of β-arrestin 2 over miniGaq

SMILES: Cc1cc(Cl)cc(CNCCn2c(=O)oc3ccccc32)c1 [Compound 17, 3-(2-((3-chloro-5-methylbenzyl)amino)ethyl)benzo-[d]oxazol-2(3H)-one]
- activation at 30 µM (5-HT2A [1]): -5.4%

SMILES: Cc1cc(Cl)cc(CNCc2c[nH]c3ccccc23)c1 [Compound 3, N-((1H-indol-3-yl)methyl)-1-(3-chloro-5-methylphenyl) methanamine hydrochloride]
- activation at 30 µM (5-HT2A [1]): 77.2%

SMILES: Cc1cc(Cl)cc(CNC(C)Cc2c[nH]c3ccccc23)c1 (stereo not drawn) [Compound 2, N-(3-chloro-5-methylbenzyl)-1-(1H-indol-3-yl) propan-2-amine]
- activation at 30 µM (5-HT2A [1]): 84.2%
- EC50 (5-HT2A [2]): 434 nM
- EC50 (5-HT2C): 102 nM

SMILES: Cc1cc(Cl)cc(CNCCc2cn(C)c3ccccc23)c1 [Compound 5, N-(3-chloro-5-methylbenzyl)-2-(1-methyl-1H-indol-3-yl) ethan-1-amine]
- activation at 30 µM (5-HT2A [1]): 112%
- EC50 (5-HT2A [2]): 17.5 nM
- EC50 (5-HT2C): 116 nM

SMILES: Cc1cc(Cl)cc(CN(C)CCc2c[nH]c3ccccc23)c1 [Compound 18]
- activation at 30 µM (5-HT2A [1]): 93.3%

SMILES: CCn1cc(CC(C)NCc2cc(C)cc(Cl)c2)c2ccccc21 (stereo not drawn) [Compound 8, N-(3-chloro-5-methylbenzyl)-1-(1-ethyl-1H-indol-3-yl) propan-2-amine]
- activation at 30 µM (5-HT2A [1]): 86.4%

SMILES: COc1ccc(OC)c(CCNCc2cccc3c2OCO3)c1 [Compound 25H-NBMD]
- preference for recruitment of β-arrestin 2 over miniGaq (5-HT2A [3]): statistically significant preference towards the recruitment of β-arrestin 2 over miniGaq

SMILES: Cc1cc(Cl)cc(CNCCc2nn(C)c3ccccc23)c1 [Compound 11, N-(3-chloro-5-methylbenzyl)-2-(1-methyl-1H-indazol-3-yl)-ethan-1-amine]
- activation at 30 µM (5-HT2A [1]): 79.1%

SMILES: CCn1cc(CCNCc2cc(C)cc(Cl)c2)c2ccccc21 [Compound 7, N-(3-chloro-5-methylbenzyl)-2-(1-ethyl-1H-indol-3-yl) ethan-1-amine hydrochloride]
- activation at 30 µM (5-HT2A [1]): 95.9%
- EC50 (5-HT2A [2]): 17.2 nM
- EC50 (5-HT2C): 4 nM

SMILES: Cc1cc(F)cc(CNCCc2c[nH]c3ccccc23)c1 [Compound 10, N-(3-fluoro-5-methylbenzyl)-2-(1H-indol-3-yl) ethan-1-amine hydrochloride]
- activation at 30 µM (5-HT2A [1]): 72.6%

SMILES: Cc1cc(Cl)cc(CNCCn2cnc3ccccc32)c1 [Compound 13, 2-(1H-benzo[d]imidazol-1-yl)-N-(3-chloro-5-methylbenzyl) ethan-1-amine hydrochloride]
- activation at 30 µM (5-HT2A [1]): 43.5%

SMILES: Cc1cc(Cl)cc(CNC(C)Cc2cn(C)c3ccccc23)c1 (stereo not drawn) [Compound 6, N-(3-chloro-5-methylbenzyl)-1-(1-methyl-1H-indol-3-yl) propan-2-amine]
- activation at 30 µM (5-HT2A [1]): 110%

SMILES: COc1cc2c(CCNCc3cc(C)cc(Cl)c3)c[nH]c2cc1I [Compound 4, N-(3-chloro-5-methylbenzyl)-2-(6-iodo-5-methoxy-1H-indol-3-yl) ethan-1-amine]
- activation at 30 µM (5-HT2A [1]): 96.4%
- EC50 (5-HT2A [2]): 60 nM
- EC50 (5-HT2C): 384 nM

SMILES: COc1ccc(OC)c(CCNCc2ccccc2OC)c1 [Compound 25H-NBOMe]
- preference for recruitment of β-arrestin 2 over miniGaq (5-HT2A [3]): statistically significant preference towards the recruitment of β-arrestin 2 over miniGaq

SMILES: CCN(CC)C(=O)[C@@H]1C=C2c3cccc4[nH]cc(c34)C[C@H]2N(C)C1 [LSD]
- activation of canonical Gq-based signaling downstream of 5-HT2A (5-HT2A receptor [4]): activate canonical Gq-based signaling downstream of 5-HT2A
- expression of early growth response proteins (EGR1 and EGR2) via Gi/o subunits and SRC protein kinase (5-HT2A receptor [5]): stimulated the expression of early growth response proteins (EGR1 and EGR2)

SMILES: COc1ccc(OC)c(CCNCc2ccccc2O)c1 [Compound 25H-NBOH]
- preference for recruitment of β-arrestin 2 over miniGaq (5-HT2A [3]): statistically significant preference towards the recruitment of β-arrestin 2 over miniGaq

SMILES: Cc1cc(Cl)cc(CNCCn2ncc3ccccc32)c1 [Compound 12, N-(3-chloro-5-methylbenzyl)-2-(1H-indazol-1-yl) ethan-1-amine hydrochloride]
- activation at 30 µM (5-HT2A [1]): 69.8%

SMILES: Cc1cc(Cl)cc(CNCCc2c(C)[nH]c3ccccc23)c1 [Compound 9, N-(3-chloro-5-methylbenzyl)-2-(2-methyl-1H-indol-3-yl) ethan-1-amine hydrochloride]
- activation at 30 µM (5-HT2A [1]): 88.9%
- EC50 (5-HT2A [2]): 15 nM
- EC50 (5-HT2C): > 1000 nM
